ChEMBL document CHEMBL3108723, “Combatting resistant bacteria with the help of Beta-lactamase inhibitors” (2014)

Key:
Format in all cases: functional
[1] = test system: Pseudomonas aeruginosa; assay: Antibacterial activity against Pseudomonas aeruginosa producing PER-1 and OXA-10 beta-lactamase assessed as reduction in MIC of ceftazidime at […] by broth microdilution method relative to control
[2] = test system: Pseudomonas aeruginosa; assay: Antibacterial activity against Pseudomonas aeruginosa producing AmpC beta-lactamase assessed as reduction in MIC of ceftazidime at […] by broth microdilution method relative to control
[3] = test system: Klebsiella pneumoniae; assay: Antibacterial activity against Klebsiella pneumoniae producing KPC2 beta-lactamase assessed as reduction in MIC of ceftazidime at […] by broth microdilution method relative to control

Measured: fold change (FC)

CC1=C[C@@H](C(N)=O)N2C[C@@H]1N(OS(=O)(=O)[O-])C2=O.[Na+]
4: [1] | [2] | [3]

COCC1=C[C@@H](COC)N2C[C@@H]1N(OS(=O)(=O)[O-])C2=O.[Na+]
4: [1] | [2] | [3]

CC1=C[C@@H](C(=O)NCc2cc(=O)c(O)c[nH]2)N2C[C@@H]1N(OS(=O)(=O)O)C2=O
4: [1] | [2] | [3]
